{"source": "patent US7417124B2", "about": "“Antibodies specific for phosphorylation sites and screening methods using the same antibodies” (Zeria Pharmaceutical Co., Ltd., priority 2003, dated 2008)", "system": "phosphorylation in the linker regions of Smad proteins", "assay": "Smad linker region phosphorylation in TGF-β-treated myofibroblasts, immunoprecipitation and immunoblotting with phosphorylation-specific antibodies", "type": "cell-based", "settings": "myofibroblasts from rat liver, compounds 30 minutes before 200 pM TGF-β, FIG. 3", "experimental": "The phosphorylation of Smad2 and Smad3 was examined by western blotting using antibodies against Smad2 and Smad3 which were site-specifically phosphorylated after the immunoprecipitation with anti-Smad2 antibody and anti-Smad3 antibody.\nMyofibroblasts (MFB 2×10^6 cells/100 mm dish) from rat liver were cultured in DMEM medium (containing 5% fetal bovine serum) for several days and further cultured with 200 pM TGF-β (R&D Systems) for 30 minutes under the serum-free conditions. The cells were homogenized with RIPA buffer (10 mM Tris-HCl, pH 7.8/1% NP40/0.15M NaCl/1 mM EDTA/10 μg/ml aprotinin), and the resultant lysate was centrifuged at 15,000×g. The supernatant was incubated with Smad-specific antibodies and protein G-sepharose (Amersham Bioscience) to obtain immunoprecipitate. After the incubation, part of the precipitate was subjected to SDS-polyacrylamide gel electrophoresis, the obtained gel was transferred onto a PVDF membrane, and immunoblotting was performed using the antibodies specific for phosphorylation of the linker regions and C-terminal regions in Smad2 and Smad3. The detection was carried out by a chemiluminescence technique using HRP-labeled secondary antibody/anti-IgG, IgH antibody (Amersham Bioscience). […] The detected bands were quantified using an imaging analyzer.", "data": [{"smiles": "C[S+]([O-])c1ccc(-c2nc(-c3ccncc3)c(-c3ccc(F)cc3)[nH]2)cc1", "note": "(stereo not shown) [SB203580]", "values": [{"measurement": "phosphorylation in the linker regions of Smad proteins", "result": "inhibited"}]}]}
